Reference: patent publication US12448388B2, “PRMT5 inhibitors and uses thereof” (Gilead Sciences, Inc., priority 2023, dated 2025)
Where two headings read alike, the source gives them in different places.

Tested on: HCT116 MTAP-deleted cell lines
Assay: Cell viability assay (CellTiter-Glo, 7 days), HCT116 MTAP-deleted
Format: cell-based
Details: Homo sapiens, HCT-116
Outline: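 Each PRMT5 inhibitor was tested as a dose response alongside tool compounds on the same plate. Incubation ran 7 days at 37 °C under 5% CO2, after which CellTiter-Glo luminescence was recorded and CC50 calculated.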

[1] = cell viability assay, HCT116 MTAP-deleted, class symbols, read-out: CC50
[2] = cell viability, HCT116 MTAP-deleted, class symbols, read-out: CC50

Compound | CC50 [1] | CC50 [2] | further results
Nc1nc2cc(F)c(C(=O)N3CC4CCC(C4)C3c3ccc(C(F)(F)F)cn3)cc2n2cncc12 (stereo not shown) [Ff-512, (4-amino-7-fluoroimidazo[1,5-a]quinoxalin-8-yl)(2-(5-(trifluoromethyl)pyridin-2-yl)-3-azabicyclo[3.2.1]octan-3-yl)methanone] | 100 to 1000 nM |  | 
Cc1ncc2c(N)nc3cnc(C(=O)N4C[C@@H](F)C[C@@H]5Oc6cc(C(F)(F)F)ccc6[C@@H]54)cc3n12 [Ff-656, (4-amino-1-methylimidazo[1,5-a]pyrido[3,4-e]pyrazin-8-yl)((3S,4aS,9bS)-3-fluoro-7-(trifluoromethyl)-3,4,4a,9b-tetrahydrobenzofuro[3,2-b]pyridin-1(2H)-yl)methanone] | < 100 nM |  | 
COC1(C#Cc2ccc3c(c2)OC[C@H]3N(C)C(=O)c2ccc3nc(N)c4cncn4c3c2)CC1 [Ff-531, (S)-4-amino-N-(6-((1-methoxycyclopropyl)ethynyl)-2,3-dihydrobenzofuran-3-yl)-N-methylimidazo[1,5-a]quinoxaline-8-carboxamide] | 100 to 1000 nM |  | 
CC(C)N(Cc1ccc(-c2ccnn2C(F)(F)F)cc1F)C(=O)c1cc2c(cc1F)nc(N)c1cncn12 [Ff-216] |  | < 100 nM | 
Cc1ncc2c(N)nc3ccc(C(=O)N4C[C@H](C)O[C@@H]5Cc6cc(OC(F)(F)F)ccc6[C@@H]54)cc3n12 (single isomer, unassigned) [Ff-190] |  | 100 to 1000 nM | 
Cn1cc(-c2ccc(CN(C(=O)c3cc4c(cc3F)nc(N)c3cncn34)C34CC(C3)C4)c(F)c2)cn1 [Ff-204, 4-amino-N-(bicyclo[1.1.1]pentan-1-yl)-7-fluoro-N-(2-fluoro-4-(1-methyl-1H-pyrazol-4-yl)benzyl)imidazo[1,5-a]quinoxaline-8-carboxamide] |  | < 100 nM | 
CN(C(=O)c1cc2c(cc1F)nc(N)c1cncn12)[C@@H]1COc2cc(-c3cnn(C4COC4)c3)ccc21 [Ff-145, (S)-4-amino-7-fluoro-N-methyl-N-(6-(1-(oxetan-3-yl)-1H-pyrazol-4-yl)-2,3-dihydrobenzofuran-3-yl)imidazo[1,5-a]quinoxaline-8-carboxamide] |  | < 100 nM | 
Nc1nc2cc(F)c(C(=O)N3CCCCC3c3ccc(C(F)(F)F)cc3F)cc2n2cncc12 (stereo not shown) [Ff-141, (4-amino-7-fluoroimidazo[1,5-a]quinoxalin-8-yl)(2-(2-fluoro-4-(trifluoromethyl)phenyl)piperidin-1-yl)methanone] |  | < 100 nM | 
Nc1nc2cc(F)c(C(=O)N(Cc3ccc(C(F)(F)F)cn3)c3cnn(C(F)F)c3)cc2n2cncc12 [Ff-311, 4-amino-N-(1-(difluoromethyl)-1H-pyrazol-4-yl)-7-fluoro-N-((5-(trifluoromethyl)pyridin-2-yl)methyl)imidazo[1,5-a]quinoxaline-8-carboxamide] |  | < 100 nM | 
C[C@H]1CN(C(=O)c2cc3c(cc2F)nc(N)c2cncn23)[C@@H]2c3ccc(C(F)(F)F)cc3C[C@@H]2O1 (single isomer, unassigned) [Ff-80] |  | < 100 nM | 
Nc1nc2cc(F)c(C(=O)N3CCC[C@@H]4OCc5cc(-c6cnn(C7CC7)c6)ccc5[C@@H]43)cc2n2cncc12 (racemic) [Ff-297, Rac-(4-amino-7-fluoroimidazo[1,5-a]quinoxalin-8-yl)((4aS,10bS)-8-(1-cyclopropyl-1H-pyrazol-4-yl)-2,3,4,4a,6,10b-hexahydro-1H-isochromeno[4,3-b]pyridin-1-yl)methanone] |  | < 100 nM | 
Cc1ncn2c1c(N)nc1cc(F)c(C(=O)N(C)[C@@H]3CCc4nc(C(F)(F)F)ccc43)cc12 [Ff-316, (R)-4-amino-7-fluoro-N,3-dimethyl-N-(2-(trifluoromethyl)-6,7-dihydro-5H-cyclopenta[b]pyridin-5-yl)imidazo[1,5-a]quinoxaline-8-carboxamide] |  | < 100 nM | 
CCN(C(=O)c1cc2c(cc1F)nc(N)c1cncn12)[C@H](C)c1ccc(C(F)(F)F)cn1 [Ff-542, (R)-4-amino-N-ethyl-7-fluoro-N-(1-(5-(trifluoromethyl)pyridin-2-yl)ethyl)imidazo[1,5-a]quinoxaline-8-carboxamide] | < 100 nM |  | 
C[C@H](C#N)N(Cc1ccc(C(F)(F)F)cc1F)C(=O)c1cc2c(cc1F)nc(N)c1cncn12 [Ff-418, 4-amino-N-[(1R)-1-cyanoethyl]-7-fluoro-N-[[2-fluoro-4-(trifluoromethyl)phenyl]methyl]imidazo[1,5-a]quinoxaline-8-carboxamide] | 100 to 1000 nM |  | 
Nc1nc2cc(F)c(C(=O)N3CC4(CCC3c3ccc(C(F)(F)F)cn3)CC4)cc2n2cncc12 (stereo not shown) [Ff-149, (4-amino-7-fluoroimidazo[1,5-a]quinoxalin-8-yl)(6-(5-(trifluoromethyl)pyridin-2-yl)-5-azaspiro[2.5]octan-5-yl)methanone] |  |  | CC50: < 100 nM
CC(C)N(Cc1ccc(-c2ccnn2C)cc1F)C(=O)c1cc2c(cc1F)nc(N)c1cncn12 [Ff-217, 4-amino-7-fluoro-N-(2-fluoro-4-(1-methyl-1H-pyrazol-5-yl)benzyl)-N-isopropylimidazo[1,5-a]quinoxaline-8-carboxamide] |  | < 100 nM | 

Compound | CC50 [1] | CC50 [2] | further results
C[C@@H](c1ccc(C(F)(F)F)cc1F)N(C)C(=O)c1cc2c(cc1F)nc(N)c1cncn12 [Ff-533, (S)-4-amino-7-fluoro-N-(1-(2-fluoro-4-(trifluoromethyl)phenyl)ethyl)-N-methylimidazo[1,5-a]quinoxaline-8-carboxamide] | 100 to 1000 nM |  | 
CCN(C(=O)c1cc2c(cn1)nc(N)c1cnc(C)n12)[C@@H]1COc2cc(C(F)(F)F)ccc21 [Ff-613, (S)-4-amino-N-ethyl-1-methyl-N-(6-(trifluoromethyl)-2,3-dihydrobenzofuran-3-yl)imidazo[1,5-a]pyrido[3,4-e]pyrazine-8-carboxamide] | < 100 nM |  | 
Nc1nc2cc(F)c(C(=O)N3CCC[C@@H]4Oc5cc(Cl)ccc5[C@@H]43)cc2n2cncc12 [Ff-260, (4-amino-7-fluoroimidazo[1,5-a]quinoxalin-8-yl)((4aS,9bS)-7-chloro-3,4,4a,9b-tetrahydrobenzofuro[3,2-b]pyridin-1(2H)-yl)methanone] |  | < 100 nM | 
Nc1nc2cc(F)c(C(=O)N3CCO[C@@H]4Cc5cc(C(F)F)c(F)cc5[C@@H]43)cc2n2cncc12 [Ff-168, (4-amino-7-fluoroimidazo[1,5-a]quinoxalin-8-yl)((4aS,9aR)-7-(difluoromethyl)-6-fluoro-2,3,9,9a-tetrahydroindeno[2,1-b][1,4]oxazin-4(4aH)-yl)methanone] |  | < 100 nM | 
Nc1nc2cc(F)c(C(=O)N3CCC[C@@H]4OCc5cc(-c6ccn(C(F)F)n6)ccc5[C@@H]43)cc2n2cncc12 (racemic) [Ff-298, Rac-(4-amino-7-fluoroimidazo[1,5-a]quinoxalin-8-yl)((4aS,10bS)-8-(1-(difluoromethyl)-1H-pyrazol-3-yl)-2,3,4,4a,6,10b-hexahydro-1H-isochromeno[4,3-b]pyridin-1-yl)methanone] |  | < 100 nM | 
C[C@H]1CN(C(=O)c2cc3c(cc2F)nc(N)c2cncn23)[C@@H](c2ccc(C(F)(F)F)cn2)CO1 [Ff-130, (4-amino-7-fluoroimidazo[1,5-a]quinoxalin-8-yl)((2S,5S)-2-methyl-5-(5-(trifluoromethyl)pyridin-2-yl)morpholino)methanone] |  | < 100 nM | 
CN(C(=O)c1cc2c(cc1F)nc(N)c1cncn12)[C@@H]1COc2cc(S(F)(F)(F)(F)F)ccc21 [Ff-652, (S)-4-amino-7-fluoro-N-methyl-N-(6-(pentafluoro-16-sulfaneyl)-2,3-dihydrobenzofuran-3-yl)imidazo[1,5-a]quinoxaline-8-carboxamide] | < 100 nM |  | 
CN(C(=O)c1cc2c(cc1F)nc(N)c1cncn12)[C@@H]1COc2cc(C3=CCOC3)ccc21 [Ff-483, (S)-4-amino-N-(6-(2,5-dihydrofuran-3-yl)-2,3-dihydrobenzofuran-3-yl)-7-fluoro-N-methylimidazo[1,5-a]quinoxaline-8-carboxamide] | < 100 nM |  | 
CN(C(=O)c1cc2c(cc1F)nc(N)c1cncn12)C1COc2cc(Br)c(F)cc21 (stereo not shown) [Ff-560, 4-amino-N-(6-bromo-5-fluoro-2,3-dihydrobenzofuran-3-yl)-7-fluoro-N-methylimidazo[1,5-a]quinoxaline-8-carboxamide] | < 100 nM |  | 
CN(C(=O)c1cc2c(cc1F)nc(N)c1cncn12)[C@@H]1COc2cc([C@H]3C[C@@H]3C(F)F)ccc21 (single isomer, unassigned) [Ff-505] | < 100 nM |  | 
COc1cc(-c2cnn(C(F)(F)F)c2)ccc1CN(C)C(=O)c1cc2c(cc1F)nc(N)c1cncn12 [Ff-554, 4-amino-N-(4-(1-(trifluoromethyl)-1H-pyrazol-4-yl)-2-methoxybenzyl)-7-fluoro-N-methylimidazo[1,5-a]quinoxaline-8-carboxamide] | 100 to 1000 nM |  | 
CN(Cc1ccc(OCC(F)(F)F)cc1)C(=O)c1cc2c(cc1F)nc(N)c1cncn12 [Ff-433, 4-amino-7-fluoro-N-methyl-N-[[4-(2,2,2-trifluoroethoxy)phenyl]methyl]imidazo[1,5-a]quinoxaline-8-carboxamide] | 100 to 1000 nM |  | 
Nc1nc2cnc(C(=O)N3CCC[C@@H]4Cc5cc(C(F)(F)F)ccc5[C@@H]43)cc2n2cncc12 (racemic) [Ff-250, Rac-(4-aminoimidazo[1,5-a]pyrido[3,4-e]pyrazin-8-yl)((4aR,9bR)-7-(trifluoromethyl)-2,3,4,4a,5,9b-hexahydro-1H-indeno[1,2-b]pyridin-1-yl)methanone] |  | < 100 nM | 
Cc1ncn2c1c(N)nc1cc(F)c(C(=O)N3CC(C)(C)C[C@@H]4Oc5nc(C(F)(F)F)ccc5[C@@H]43)cc12 (racemic) [Ff-385, Rac-(4-amino-7-fluoro-3-methylimidazo[1,5-a]quinoxalin-8-yl)((4aS,9bS)-3,3-dimethyl-7-(trifluoromethyl)-3,4,4a,9b-tetrahydrofuro[2,3-b:4,5-b′]dipyridin-1(2H)-yl)methanone] | < 100 nM |  | 
CN(C(=O)c1cc2c(cc1F)nc(N)c1cncn12)[C@@H]1COc2cc(C(F)(F)F)c(F)cc21 [Ff-503, (S)-4-amino-7-fluoro-N-(5-fluoro-6-(trifluoromethyl)-2,3-dihydrobenzofuran-3-yl)-N-methylimidazo[1,5-a]quinoxaline-8-carboxamide] | < 100 nM |  | 
